Read-outs that look alike come from different tables or passages of the source.
How the values were obtained:
tobacco leaf discs = conditions: silver nitrate during co-cultivation; LBA4404(GIGUP) 10^9 cells/ml
maize embryos = conditions: for Score (Callus initiation): transfer 2DG4 + AgNO3 +Cef, two weeks
Procedure: Immature embryos (1.2 to 2.2 mm in length) are aseptically excised 14-15 days after pollination from surface-sterilized, greenhouse-grown ears and plated scutellum up on callus initiation medium, 2DG4 + 5 mg/l chloramben (2DG4-5Chl). 2DG4 medium is Duncan's medium modified to contain […] sucrose.
Embryos with callus response: • Immature embryos are sterilized as described above and plated on callus initiation medium (2DG4-5Chl) and cultured therein for 1 to 7 days. The resulting tissue is used as samples for inoculation.
(§1) Strain A. tumefaciens LBA4404 (pAL4404, pSB1) is used in these experiments. pAL4404 is a disarmed helper plasmid. pSB1 is a wide host range plasmid that contains a region of homology to pGIGUP and a 15.2 kb Kpnl fragment from the virulence region of pTiBo542 (Ishida et al., 1996; High efficiency transformation of maize (Zea mays L.) mediated by Agrobacterium tumefaciens, Nature Biotechnology 14, 745-750). The introduction of the plasmid pGlGUP by electroporation into LBA4404(pAL4404, pSB1) results in a cointegration of pGlGUP and pSB1. The T-DNA of this plasmid contains a plant expressible PAT gene driven by the ubiquitin promoter to provide resistance to phosphinothricin and a gene for GUS with an intron in the N-terminal codon of the coding sequence driven by the Gelvin promoter. This intron-GUS gene expresses GUS activity in the plant cell but not in Agrobacterium.
(§2) Agrobacterium is grown for 3 days on YP medium (5g/l yeast extract, 10g/l peptone, 5g/l NaCl, 15 g/l agar, pH 6.8) supplemented with 50 mg/l spectinomycin and 10 mg/l tetracycline. Bacteria are collected with a loop and suspended in N6 liquid medium at a density ranging from 10^9 to 5 10^9cells/ml. Agrobacterium cells can also be collected from an overnight culture in YP medium and resuspended in N6 liquid medium.
(§3) Maize tissues prepared as described above are inoculated with Agrobacterium. Maize tissues are soaked in the bacterial suspension for 5-10 min and then plated on medium with or without silver nitrate (1 to 10 mg/l). Tissues are also inoculated with a 5 µl drop 10^9 to 5x10^9cells/ml of an Agrobacterium suspension placed on the top of the tissue. After inoculation, maize tissues are cultured in the dark at 25°C with or without silver nitrate in the medium (1 to 10 mg/l). 2 or 3 days after inoculation, tissues are transferred on the same medium supplemented with cefotaxime (250 mg/l) with or without silver nitrate.

maize type I callus = conditions: transfer 2DG4+ AgNO3 + Cef, 2 weeks
Procedure: Embryos plated on callus initiation medium (2DG4 + 5 Chloramben) for 7 to 20 days give rise to callus. […] Resultant embryogenic callus are cut out of embryos and transferred to callus maintenance medium, 2DG4 + 0.5 mg/l (2,4-dichlorophenoxy) acetic acid (2,4-D) and used as samples for inoculation.
Type I callus obtained by the method described above can be maintained on the maintenance medium (2DG4 + 2,4 D 0.5 mg/l) and subcultured every 2 weeks.
as §1, §2, §3

cell line HE/89 = assay: DNA fragmentation (DNA ladders) after Agrobacterium exposure, sensitivity to added agents; format: cell-based; conditions: maize cells exposed to Agrobacterium, agent added
Procedure: In order to determine the mechanism of cell death induced by Agrobacterium in maize tissues, genomic DNA is extracted from plant suspension cells harvested 24 or 48 hours after inoculation with Agrobacterium. Exposure to Agrobacterium causes DNA fragmentation in both maize lines, with a pattern characteristic of internucleosomal fragmentation, which is considered an early hallmark of programmed cell death. […] Furthermore, maize cells undergoing programmed cell death could not induce cell death of fresh maize embryogenic tissues.
Further evidence for Agrobacterium inducing DNA fragmentation is obtained by investigating the sensitivity of the process to Zn^2+ and Ca^2+. […] These characteristics are fully consistent with the effect of these divalent cations on the endogenous endonucleases responsible for DNA cleavage during apoptosis in animal system. The intensity of the ladder also is decreased by addition of cycloheximide, evidence that the process requires de novo gene expression. […] Fragmentation of DNA during apoptosis is also detected in situ by reagents that react with the exposed hydroxyls on the nucleosome units. 12 day old maize embryos from a proprietary elite line of Lancaster parentage are inoculated with LBA4404 and plated on DG4 medium supplemented with chloramben. Koziel, M.G., & al. 1993. Bio/Technology 11: 194-200. Apoptotic cells are detected by in situ staining with TACS-1 kit (Trevigen), which involves end labeling the DNA fragments by the klenow enzyme using dNTP conjugated to a detectable marker, giving a dark insoluble precipitate indicative of genomic fragmentation. Cullivier, O., Pirianov, G., Kleuser, B., Vanek, P.G., Coso, O.A., Gutking, J.S. and Spiegel, S. (1996) Nature 381, 800-803. Embryos are soaked in 3.7% formadehyde solution and processed as described by the manufacturer. To detect genomic DNA cleavage in situ, fixed embryos are treated with the TACS-1 kit. Fixed cross-sections are first treated with proteinase K for 5 min at room temperature and then dipped for 5 min into 2% hydrogen peroxide to remove endogenous peroxidase. […]

O=[N+]([O-])[O-].[Ag+] [AgNO3, silver nitrate]
GUS activity (tobacco leaf discs): No significant decrease
embryos able to produce embryogenic calli (maize embryos; embryos plated on medium containing silver nitrate, inoculated with Agrobacterium): About 50%
Score (Callus initiation) (maize embryos; no pretreatment, co-inoculation 2DG4 + AgNO3, LBA4404 (GIGUP) 10^9 cells/ml): 55%
Score (Callus initiation) (maize embryos; no pretreatment, co-inoculation 2DG4, LBA4404 (GIGUP) 10^9 cells/ml): 30%
Score (Callus initiation) (maize embryos; pretreatment 2DG4 (6 days) + 1 day on 2DG4 + AgNO3, co-inoculation 2DG4 + AgNO3): 88%
Score (Callus initiation) (maize embryos; pretreatment 2DG4 (6 days), co-inoculation 2DG4 + AgNO3): 65%
Score (Callus initiation) (maize embryos; pretreatment 2DG4 + AgNO3 (1 day), co-inoculation 2DG4 + AgNO3): 43%
Score (Callus initiation) (maize embryos; pretreatment 2DG4 + AgNO3(4 days), co-inoculation 2DG4 + AgNO3): 27%
Score (Survival of tissues) (maize type I callus; 1/2 month old Type I callus, pretreatment 2DG4+AgNO3, co-inoculation 2DG4+AgNO3): 95%
Score (Survival of tissues) (maize type I callus; 1/2 month old Type I callus, pretreatment 2DG4, co-inoculation 2DG4+AgNO3): 75%
Score (Survival of tissues) (maize type I callus; 10 month-old Type I callus, pretreatment 2DG4+ AgNO3, co-inoculation 2DG4+ AgNO3): 66%
Score (Survival of tissues) (maize type I callus; 10 month-old Type I callus, pretreatment 2DG4, co-inoculation 2DG4+ AgNO3): 55%

[Ca+2] [Ca^2+]
intensity of DNA ladders (genomic fragmentation) (cell line HE/89): increased the intensity of DNA ladders

[Zn+2] [Zn^2+]
intensity of DNA ladders (genomic fragmentation) (cell line HE/89): markedly reduced genomic fragmentation

CO/N=C(\C(=O)N[C@@H]1C(=O)N2C(C(=O)O)=C(COC(C)=O)CS[C@H]12)c1csc(N)n1 [cefotaxime]
necrosis of maize tissue (HE/89): does not cause the maize tissue to become necrotic

C[C@@H]1C[C@@H]([C@H](O)CC2CC(=O)NC(=O)C2)C(=O)[C@@H](C)C1 [cycloheximide]
intensity of DNA ladders (genomic fragmentation) (cell line HE/89): decreased

From patent publication EP0986299B1, “PLANT TRANSFORMATION METHODS” (Syngenta Participations AG, priority 1997, dated 1998)
